The results in this text go back to patent US20090043129A1 (priority 2005, published 2009).

Read-outs that look alike come from different tables or passages of the source. Some results are limits rather than exact numbers.

Data set [1] deals with Anandamide Membrane Transporter (AMT). In words: Anandamide uptake by RBL-2H3 cells. Format: cell-based. Conditions: anandamide uptake, read-out: AMT IC50. As to the method: Assay for the Anandamide Membrane Transporter (AMT)
The effect of the compounds on the uptake of anandamide by the RBL-2H3 cells was studied as described (Di Marzo et al., 2002). Cells were incubated with [^14C]anandamide (4 μM) for 5 minutes at 37° C., in the presence or absence of varying concentrations of the inhibitors. Residual [^14C]anandamide in the incubation media after extraction with CHCl3/CH3OH (2:1 by volume) was used as a measure of the anandamide that was taken up by cells. Data are expressed as the concentration that produces 50% of inhibition of anandamide uptake (IC50) calculated with GraphPad.

The target in data set [2] is T1, Fatty Acid Amide Hydrolase (FAAH) (Rattus norvegicus, UniProt P97612).
T1 sequence (P97612 1-579): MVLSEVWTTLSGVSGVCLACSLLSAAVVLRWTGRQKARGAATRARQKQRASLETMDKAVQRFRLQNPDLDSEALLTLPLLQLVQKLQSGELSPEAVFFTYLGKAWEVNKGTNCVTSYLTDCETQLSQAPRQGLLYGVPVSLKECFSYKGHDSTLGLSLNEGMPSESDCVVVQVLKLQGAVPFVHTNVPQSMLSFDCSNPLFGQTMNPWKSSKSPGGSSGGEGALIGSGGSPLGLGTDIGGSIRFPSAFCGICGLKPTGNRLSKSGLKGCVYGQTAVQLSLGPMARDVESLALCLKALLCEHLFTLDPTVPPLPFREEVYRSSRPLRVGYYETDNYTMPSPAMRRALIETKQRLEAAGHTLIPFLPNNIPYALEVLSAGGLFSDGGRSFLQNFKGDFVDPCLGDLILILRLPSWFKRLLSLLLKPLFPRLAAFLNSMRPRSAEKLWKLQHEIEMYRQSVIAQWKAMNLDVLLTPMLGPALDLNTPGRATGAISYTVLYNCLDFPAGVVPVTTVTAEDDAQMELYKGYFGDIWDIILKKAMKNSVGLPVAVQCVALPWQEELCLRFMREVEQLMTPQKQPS
In words: biochemical. As to the method: Assay for Fatty Acid Amide Hydrolase (FAAH)
The effect of compounds on the enzymatic hydrolysis of [^14C]anandamide (6 μM) was studied using membranes prepared from rat brain incubated with increasing concentrations of compounds in 50 mM Tris-HCl, pH 9, for 30 minutes at 37° C. (Di Marzo et al., 2002). [^14C]ethanolamine produced from [^14C]anandamide hydrolysis was measured counting the scintillation of the aqueous phase after extraction of the incubation mixture with 2 volumes of CHCl3/CH3OH (2:1 by volume). […]

In data set [3] the target is human recombinant CB2 receptor (Homo sapiens, UniProt P34972). Nature of the data set: CB2 binding, [3H]CP55,940 displacement, membranes from transfected COS cells. Further details: purchased Perkin-Elmer; host or cells: COS cells. Conditions: for Ki: recombinant human CB2, COS cell membranes.
For data set [4], the target named is human recombinant CB1 receptor (Homo sapiens, UniProt P21554). Format: binding. Further details: purchased Perkin-Elmer; host or cells: COS cells.
The target of data set [5] is T2, CB2 (Rattus norvegicus, UniProt Q9QZN9).
T2 construct: from tissue; host or cells: rat spleen membranes
T2 sequence (Q9QZN9 1-360): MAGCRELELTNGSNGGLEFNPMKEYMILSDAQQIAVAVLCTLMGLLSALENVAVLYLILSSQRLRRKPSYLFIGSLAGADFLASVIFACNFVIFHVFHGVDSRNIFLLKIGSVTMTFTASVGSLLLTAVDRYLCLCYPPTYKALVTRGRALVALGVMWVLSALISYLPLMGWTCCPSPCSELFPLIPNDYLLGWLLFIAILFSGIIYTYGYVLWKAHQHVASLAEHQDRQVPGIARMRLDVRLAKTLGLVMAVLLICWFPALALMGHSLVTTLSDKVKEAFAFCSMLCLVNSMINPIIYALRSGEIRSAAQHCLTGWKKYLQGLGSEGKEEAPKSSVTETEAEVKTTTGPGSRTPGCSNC
In words: Preliminary selection with rat spleen membranes. The data set is classed as binding. Conditions: rat brain and spleen membranes, read-out: CB2 (n.a. class, IC50 in preliminary selection).

Setting [6] is: rat brain membranes, read-out: FAAH (n.a. class).
Setting [7] is: recombinant human CB1, COS cell membranes.

Sequence of human recombinant CB2 receptor (P34972 whole entry): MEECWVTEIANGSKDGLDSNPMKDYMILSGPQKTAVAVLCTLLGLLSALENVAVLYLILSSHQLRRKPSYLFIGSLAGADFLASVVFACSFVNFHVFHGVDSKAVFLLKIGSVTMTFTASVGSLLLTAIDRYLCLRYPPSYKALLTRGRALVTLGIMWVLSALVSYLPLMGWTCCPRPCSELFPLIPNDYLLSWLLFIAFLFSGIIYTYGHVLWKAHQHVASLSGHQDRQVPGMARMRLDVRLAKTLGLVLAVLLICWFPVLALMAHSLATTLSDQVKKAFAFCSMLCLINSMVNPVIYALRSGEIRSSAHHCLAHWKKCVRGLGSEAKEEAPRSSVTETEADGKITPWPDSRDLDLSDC
Sequence of human recombinant CB1 receptor (P21554 whole entry): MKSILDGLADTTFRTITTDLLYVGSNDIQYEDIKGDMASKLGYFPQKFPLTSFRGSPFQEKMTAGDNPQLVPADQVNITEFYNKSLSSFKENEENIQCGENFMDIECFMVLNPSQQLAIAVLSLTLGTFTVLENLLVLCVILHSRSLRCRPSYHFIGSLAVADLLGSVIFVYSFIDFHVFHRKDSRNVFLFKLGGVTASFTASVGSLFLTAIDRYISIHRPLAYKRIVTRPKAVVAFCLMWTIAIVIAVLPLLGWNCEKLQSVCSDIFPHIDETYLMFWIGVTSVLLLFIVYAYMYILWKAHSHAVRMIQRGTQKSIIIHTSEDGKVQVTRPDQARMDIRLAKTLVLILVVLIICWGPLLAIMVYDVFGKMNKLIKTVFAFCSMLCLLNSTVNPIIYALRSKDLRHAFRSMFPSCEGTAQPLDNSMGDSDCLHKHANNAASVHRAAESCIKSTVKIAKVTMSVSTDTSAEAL

Consider `CCCCCCCCCCCCCCCc1cccc(OCCCCCC(=O)Nc2ccc(O)cc2)c1` [Compound 17, 6-(3-Pentadecyl-phenoxy)-hexanoic acid (4-hydroxy-phenyl)-amide], for which the melting point (in general, the temperature, or range, at which the solid turns liquid) came out at 103.2 °C. Besides, the IC50 in data set [1] was over 25 µM. The IC50 in data set [2] (setting [6]) is over 10 µM.
Take `O=C(CCCCCCCCCCOc1cccc(O)c1)NC1CC1` [Compound 34, 11-(3-Hydroxy-phenoxy)-undecanoic acid cyclopropilamide]: the Ki (commonly the dissociation constant of the complex between target and ligand, obtained from inhibition or displacement) in data set [3] turned out to be 5.4 µM. In data set [2], this molecule yielded an IC50 of over 10 µM.
With `CCCCCCCCCCCCCCCc1cccc(OCCCCCC(=O)NCCO)c1` [Compound 15, 6-(3-Pentadecyl-phenoxy)-hexanoic acid (2-hydroxy-ethyl)-amide], the melting point was found to be 62.7 °C. Further, the IC50 in data set [1] is over 25 µM. Moreover, in data set [2] (setting [6]), the IC50 was over 10 µM.
`CCCCCCCCCCCCCCCc1cccc(OCCCCCCCCCCC(=O)NC2CC2)c1` [Compound 19, 11-(3-Pentadecyl-phenoxy)-undecanoic acid cyclopropylamide] yielded a melting point of 82 °C.
In turn, `CCCCCc1cc(O)cc(OCCCCCCCCCCCCCCCC(=O)NCCO)c1` [Compound 27, 16-(3-Hydroxy-5-pentyl-phenoxy)-hexadecanoic acid (2-hydroxy-ethyl)-amide] gave a melting point of 84 to 85 °C. Besides, the Ki in data set [4] (setting [7]) came to 12.5 µM. For the same molecule, the IC50 in data set [5] is over 10 µM.
On to `CCCCCc1cc(O)cc(OCCCCCC(=O)NCCO)c1` [Compound 21, 6-(3-Hydroxy-5-pentyl-phenoxy)-hexanoic acid (2-hydroxy-ethyl)-amide], for which the IC50 in data set [2] and in data set [5] was over 10 µM in each case.
The molecule `CCCCCCc1ccc(O)cc1OCCCCCCCCCCCCCCCC(=O)NC1CC1` [Compound 55, 16-(2-Hexyl-5-hydroxy-phenoxy)-hexadecanoic acid cyclopropylamide] showed a melting point of 72.8 °C. For the same molecule, the Ki in data set [3] was determined as 2.49 µM. In data set [4], the inhibitory constant (Ki) was determined as 5.5 µM.
For `O=C(CCCCCOc1cccc(O)c1)NCCO` [Compound 30, 6-(3-Hydroxy-phenoxy)-hexanoic acid (2-hydroxy-ethyl)-amide], in data set [2], the IC50 is over 10 µM.
For the molecule `CCCCCc1cc(O)cc(OCCCCCCCCCCCCCCCC(=O)Nc2ccc(O)cc2)c1` [Compound 29, 16-(3-Hydroxy-5-pentyl-phenoxy)-hexadecanoic acid (4-hydroxy-phenyl)-amide], the melting point stood at 89.5 °C. Moreover, in data set [5], the IC50 was over 10 µM.
On to `CCCCCCc1ccc(OCCCCCC(=O)Nc2ccc(O)cc2)cc1O`, for which the melting point is 128.4 °C.
`O=C(CCCCCCCCCCCCCCCOc1cccc(O)c1)NC1CC1` [Compound 37, 16-(3-Hydroxy-phenoxy)-hexadecanoic acid cyclopropylamide] came in with a melting point of 105.6 °C. Besides, the Ki in data set [4] (setting [7]) turned out to be 4.25 µM. The IC50 in data set [5] was over 10 µM.
Take `O=C(CCCCCCCCCCCCCCCOc1cccc(O)c1)NCCO` [Compound 36, 16-(3-Hydroxy-phenoxy)-hexadecanoic acid (2-hydroxy-ethyl)-amide]: the melting point turned out to be 94.5 °C. Further, the IC50 in data set [5] is over 10 µM.
In the case of `O=C(CCCCCCCCCCCCCCCOc1cccc(O)c1)Nc1ccc(O)cc1` [Compound 38, 16-(3-Hydroxy-phenoxy)-hexadecanoic acid (4-hydroxy-phenyl)-amide], the Ki in data set [4] (setting [7]) amounted to 5 µM.
As to `CCCCCc1cc(O)cc(OCCCCCCCCCCCCCCCC(=O)NC2CC2)c1` [Compound 28, 16-(3-Hydroxy-5-pentyl-phenoxy)-hexadecanoic acid cyclopropylamide], the melting point came to 91 °C. In addition, the IC50 in data set [5] was over 10 µM.
Consider `CCCCCCc1ccc(O)cc1OCCCCCC(=O)NC1CC1` [Compound 49, 6-(2-Hexyl-5-hydroxy-phenoxy)-hexanoic acid cyclopropylamide], for which the Ki in data set [3] was found to be 3.57 µM. This molecule had an IC50 in data set [2] of over 10 µM.
On to `CCCCCCc1ccc(OCCCCCCCCCCCCCCCC(=O)Nc2ccc(O)cc2)cc1O` [Compound 47, 16-(3-Hydroxy-4-hexyl-phenoxy)-hexadecanoic acid (4-hydroxy-phenyl)-amide], for which the melting point turned out to be 133.2 °C. The IC50 in data set [5] was over 10 µM.
In turn, `CCCCCCc1ccc(O)cc1OCCCCCCCCCCCCCCCC(=O)Nc1ccc(O)cc1` [Compound 56, 16-(2-Hexyl-5-hydroxy-phenoxy)-hexadecanoic acid (4-hydroxy-phenyl)-amide] returned a melting point of 82.4 °C. Also, in data set [4] (setting [7]), the inhibition constant (Ki) stood at 3 µM. Moreover, the IC50 in data set [5] is over 10 µM.
`CCCCCCCCCCCCCCCc1cccc(OCCCCCCCCCCC(=O)NCCO)c1` [Compound 18, 11-(3-Pentadecyl-phenoxy)-undecanoic acid (2-hydroxy-ethyl)-amide] had a melting point of 83 to 85 °C.
`O=C(CCCCCCCCCCOc1cccc(O)c1)NCCO` [Compound 33, 11-(3-Hydroxy-phenoxy)-undecanoic acid (2-hydroxy-ethyl)-amide] came in with a melting point of 72.1 °C. The IC50 in data set [2] is over 10 µM. Moreover, the IC50 in data set [5] was over 10 µM.
For the molecule `CCCCCCc1ccc(OCCCCCCCCCCC(=O)NC2CC2)cc1O` [Compound 43, 11-(3-Hydroxy-4-hexyl-phenoxy)-undecanoic acid cyclopropylamide], the “selectivity for CB2 with respect to the CB1 receptors” value in data set [3] (CB1 Ki / CB2 Ki) is given as “at least 26 times”. Moreover, the inhibitory constant (Ki) in data set [3] stood at 0.35 µM. The results for the IC50 in data set [1] and in data set [2] were over 25 µM and over 10 µM, respectively.
For `CCCCCc1cc(O)cc(OCCCCCC(=O)Nc2ccc(O)cc2)c1` [Compound 23, 6-(3-Hydroxy-5-pentyl-phenoxy)-hexanoic acid (4-hydroxy-phenyl)amide], the melting point came to 69.2 °C. Moreover, the IC50 in data set [2] is over 10 µM.
For the molecule `CCCCCCCCCCCCCCCc1cccc(OCCCCCC(=O)NC2CC2)c1` [Compound 16, 6-(3-Pentadecyl-phenoxy)-hexanoic acid cyclopropylamide], the melting point was 67.8 °C. This molecule had an IC50 in data set [2] of over 10 µM.
Regarding `CCCCCCc1ccc(O)cc1OCCCCCC(=O)NCCO` [Compound 48, 6-(2-Hexyl-5-hydroxy-phenoxy)-hexanoic acid (2-hydroxy-ethyl)-amide], the IC50 in data set [2] (setting [6]) was over 10 µM.
Regarding `CCCCCCc1ccc(O)cc1OCCCCCC(=O)Nc1ccc(O)cc1`, the melting point was 106 °C.
As to `O=C(CCCCCOc1cccc(O)c1)NC1CC1` [Compound 31, 6-(3-Hydroxy-phenoxy)-hexanoic acid cyclopropylamide], the IC50 in data set [2] was over 10 µM.
`CCCCCCCCCCCCCCCc1cccc(OCCCCCCCCCCC(=O)Nc2ccc(O)cc2)c1` [Compound 20, 11-(3-Pentadecyl-phenoxy)-undecanoic acid (4-hydroxy-phenyl)-amide] showed a melting point of 107 °C.
Regarding `CCCCCCc1ccc(OCCCCCC(=O)NCCO)cc1O` [Compound 39, 6-(3-Hydroxy-4-hexyl-phenoxy)-hexanoic acid (2-hydroxy-ethyl)-amide], the melting point was determined as 71.2 °C. The Ki in data set [3] turned out to be 6.43 µM. This molecule also displayed an IC50 in data set [2] of over 10 µM.
For `CCCCCc1cc(O)cc(OCCCCCC(=O)NC2CC2)c1` [Compound 22, 6-(3-Hydroxy-5-pentyl-phenoxy)-hexanoic acid cyclopropylamide], in data set [3], the inhibition constant Ki is 0.96 µM. For the same molecule, the IC50 in data set [2] is over 10 µM.
